Measurements from US12209102B2, “Heterocyclic compounds and uses thereof” (Kumquat Biosciences Inc., priority 2022, dated 2025).

What was measured:
K-Ras G12D = target: T1, K-Ras G12D (Homo sapiens, UniProt P01116, G12D); assay: HTRF resonance energy transfer assay, K-Ras G12D / SOS1 interaction; type: biochemical; conditions: HTRF assay of Example 5; read-out: IC50 against K-Ras G12D
T1 construct: made in house; host or cells: E. coli BL21 (DE3)
How it was run: (§1)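 GST-tagged K-Ras (WT or mutant) bound to anti-GST-Eu donor was mixed with His-hSOS1 bound to anti-6His-XL665 acceptor in ~5 mM HEPES pH 7.4, 150 mM NaCl, 1 mM DTT, 0.05% BSA, 0.0025% Igepal. HTRF (ex 337, em 620/665 nm) was read after ~10 min or longer. IC50 came from the 665/620 ratio over duplicates from 10 μM to 0.01 μM.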

K-Ras G12S = target: T2, K-Ras G12S (Homo sapiens, UniProt P01116, G12S); assay: HTRF resonance energy transfer assay, K-Ras G12S / SOS1 interaction; type: biochemical; conditions: HTRF assay of Example 5; read-out: IC50 against K-Ras G12S
T2 construct: made in house; host or cells: E. coli BL21 (DE3)
T2 sequence (P01116 1-188 isoform P01116-2 G12S): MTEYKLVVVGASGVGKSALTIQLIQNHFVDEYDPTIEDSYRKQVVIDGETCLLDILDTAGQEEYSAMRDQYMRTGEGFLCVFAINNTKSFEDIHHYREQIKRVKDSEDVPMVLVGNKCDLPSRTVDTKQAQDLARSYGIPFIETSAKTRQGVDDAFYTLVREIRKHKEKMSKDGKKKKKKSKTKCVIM
How it was run: as §1

K-Ras G12V = target: T3, K-Ras G12V (Homo sapiens, UniProt P01116, G12V); assay: HTRF resonance energy transfer assay, K-Ras G12V / SOS1 interaction; type: biochemical; conditions: HTRF assay of Example 5; read-out: IC50 against K-Ras G12V
T3 construct: made in house; host or cells: E. coli BL21 (DE3)
T3 sequence (P01116 1-188 isoform P01116-2 G12V): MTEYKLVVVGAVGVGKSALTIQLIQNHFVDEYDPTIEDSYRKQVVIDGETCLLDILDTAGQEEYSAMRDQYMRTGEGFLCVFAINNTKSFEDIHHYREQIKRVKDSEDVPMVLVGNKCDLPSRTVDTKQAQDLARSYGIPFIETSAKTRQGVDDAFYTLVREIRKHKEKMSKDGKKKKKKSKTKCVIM
How it was run: as §1

K-Ras WT = target: T4, K-Ras WT (Homo sapiens, UniProt P01116); assay: HTRF resonance energy transfer assay, K-Ras WT / SOS1 interaction; type: biochemical; conditions: HTRF assay of Example 5; read-out: IC50 against K-Ras WT
T4 construct: made in house; host or cells: E. coli BL21 (DE3)
T4 sequence (P01116 1-188 isoform P01116-2): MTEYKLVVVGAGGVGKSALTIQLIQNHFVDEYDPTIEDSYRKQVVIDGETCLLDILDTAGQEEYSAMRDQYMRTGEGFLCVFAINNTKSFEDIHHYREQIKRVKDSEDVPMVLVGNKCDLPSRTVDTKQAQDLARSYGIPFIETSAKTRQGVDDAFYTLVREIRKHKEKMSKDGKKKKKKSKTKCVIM
How it was run: as §1

A549 cells = assay: Ras cellular assay, growth of cells with K-Ras G12S mutation (CellTiter-Glo); type: cell-based; conditions: Homo sapiens, cell growth, Example 9, G12S mutation, read-out: IC50 against A549 cells
How it was run: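 A549 cells (K-Ras G12S) in RPMI-1640 with 10% heat-inactivated FBS, seeded e.g. 800 per well in standard or ultra-low-attachment 384-well plates, treated next day with a dilution series (e.g. 10-point, 3-fold). Viability by CellTiter-Glo luminescence about 6 days later; IC50 from four-parameter fit.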

SW620 cells = assay: Ras cellular assay, growth of cells with K-Ras G12V mutation (CellTiter-Glo); type: cell-based; conditions: Homo sapiens, SW-620; cell growth, Example 9, G12V mutation; read-out: IC50 against SW620 cells
How it was run: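 SW620 (K-Ras G12V) cells, e.g. 800/well in RPMI-1640 with 10% heat-inactivated FBS on standard or ultra-low attachment plates, were dosed the day after plating with e.g. a 10-point 3-fold series. Viability by CellTiter-Glo luminescence about 6 days later; IC50 from four-parameter fit.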

T1 sequence (P01116 1-188 isoform P01116-2 G12D): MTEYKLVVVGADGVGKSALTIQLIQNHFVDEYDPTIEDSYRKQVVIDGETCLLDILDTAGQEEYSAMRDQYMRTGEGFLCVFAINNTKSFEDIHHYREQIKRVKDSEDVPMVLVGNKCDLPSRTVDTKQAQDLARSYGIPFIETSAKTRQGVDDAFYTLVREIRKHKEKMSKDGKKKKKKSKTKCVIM

Row | IC50 (K-Ras G12D) | IC50 (K-Ras G12S) | IC50 (K-Ras G12V) | IC50 (K-Ras WT) | IC50 (A549 cells) | IC50 (SW620 cells) | SMILES
1 | < 100 nM | < 100 nM | < 100 nM | < 100 nM | < 5000 nM | < 5000 nM | COC1CN(C(=O)N2CCC(N3C[C@H](C)Oc4c(Cl)c(-c5ccc(F)c6sc(N)c(C#N)c56)c(F)c5nc(OC[C@@]67CCCN6C[C@H](F)C7)nc3c45)CC2)C1 [Compound 935, 2-amino-4-((6S)-8-chloro-10-fluoro-2-(((2R,7aS)-2-fluorotetrahydro-1H-pyrrolizin-7a(5H)-yl)methoxy)-4-(1-(3-methoxyazetidine-1-carbonyl)piperidin-4-yl)-6-methyl-5,6-dihydro-4H-[1,4]oxazepino[5,6,7-de]quinazolin-9-yl)-7-fluorobenzo[b]thiophene-3-carbonitrile]
2 | < 100 nM | < 100 nM | < 100 nM | < 100 nM | < 5000 nM | < 5000 nM | COCCN1CCC(N2CCOc3c(Cl)c(-c4ccc(F)c5sc(N)c(C#N)c45)c(F)c4nc(OC[C@@]56CCCN5C[C@H](F)C6)nc2c34)C1 (stereo partly drawn) [Compound 936, 2-amino-4-(8-chloro-10-fluoro-2-(((2R,7aS)-2-fluorotetrahydro-1H-pyrrolizin-7a(5H)-yl)methoxy)-4-(1-(2-methoxyethyl)pyrrolidin-3-yl)-5,6-dihydro-4H-[1,4]oxazepino[5,6,7-de]quinazolin-9-yl)-7-fluorobenzo[b]thiophene-3-carbonitrile]
3 | < 100 nM | < 100 nM | < 100 nM | < 100 nM | < 5000 nM | < 5000 nM | C#Cc1c(F)ccc2cc(O)cc(-c3nc4c5c(nc(OC[C@@]67CCCN6C[C@H](F)C7)nc5c3F)N(c3ccccc3)CCO4)c12 [Compound 948, 5-ethynyl-6-fluoro-4-(4-fluoro-2-(((2R,7aS)-2-fluorotetrahydro-1H-pyrrolizin-7a(5H)-yl)methoxy)-10-phenyl-9,10-dihydro-8H-7-oxa-1,3,6,10-tetraazacyclohepta[de]naphthalen-5-yl)naphthalen-2-ol]
4 | < 100 nM | < 100 nM | < 100 nM | < 100 nM | < 5000 nM | < 5000 nM | N#Cc1c(N)sc2c(F)ccc(-c3c(Cl)c4c5c(nc(OC[C@@]67CCCN6C[C@H](F)C7)nc5c3F)N(C3CCN(C(=O)C(F)Cl)C3)CCO4)c12 (stereo partly drawn) [Compound 949, 2-amino-4-(8-chloro-4-(1-(2-chloro-2-fluoroacetyl)pyrrolidin-3-yl)-10-fluoro-2-(((2R,7aS)-2-fluorotetrahydro-1H-pyrrolizin-7a(5H)-yl)methoxy)-5,6-dihydro-4H-[1,4]oxazepino[5,6,7-de]quinazolin-9-yl)-7-fluorobenzo[b]thiophene-3-carbonitrile]
5 | < 100 nM | < 100 nM | < 100 nM | < 100 nM | < 5000 nM | < 5000 nM | N#Cc1c(N)sc2c(F)ccc(-c3c(Cl)c4c5c(nc(OC[C@@]67CCCN6C[C@H](F)C7)nc5c3F)N(C3CC(F)(F)C3)CCO4)c12 [Compound 956, 2-amino-4-(8-chloro-4-(3,3-difluorocyclobutyl)-10-fluoro-2-(((2R,7aS)-2-fluorotetrahydro-1H-pyrrolizin-7a(5H)-yl)methoxy)-5,6-dihydro-4H-[1,4]oxazepino[5,6,7-de]quinazolin-9-yl)-7-fluorobenzo[b]thiophene-3-carbonitrile]
6 | < 100 nM | < 100 nM | < 100 nM | < 100 nM | < 5000 nM | < 5000 nM | C[C@H]1CN([C@@H]2CCOC2)c2nc(OC[C@@]34CCCN3C[C@H](F)C4)nc3c(F)c(-c4ccc(F)c5sc(N)c(C#N)c45)c(Cl)c(c23)O1 [Compound 958, 2-amino-4-((6S)-8-chloro-10-fluoro-2-(((2R,7aS)-2-fluorotetrahydro-1H-pyrrolizin-7a(5H)-yl)methoxy)-6-methyl-4-((R)-tetrahydrofuran-3-yl)-5,6-dihydro-4H-[1,4]oxazepino[5,6,7-de]quinazolin-9-yl)-7-fluorobenzo[b]thiophene-3-carbonitrile]
7 | < 100 nM | < 100 nM | < 100 nM | < 100 nM | < 5000 nM | < 5000 nM | N#Cc1c(N)sc2c(F)ccc(-c3c(Cl)c4c5c(nc(OC[C@@]67CCCN6C[C@H](F)C7)nc5c3F)N(CC3(C#N)CCC3)CCO4)c12 [Compound 963, 2-amino-4-(8-chloro-4-((1-cyanocyclobutyl)methyl)-10-fluoro-2-(((2R,7aS)-2-fluorotetrahydro-1H-pyrrolizin-7a(5H)-yl)methoxy)-5,6-dihydro-4H-[1,4]oxazepino[5,6,7-de]quinazolin-9-yl)-7-fluorobenzo[b]thiophene-3-carbonitrile]
8 | < 100 nM | < 100 nM | < 100 nM | < 100 nM | < 5000 nM | < 5000 nM | N#Cc1c(N)sc2c(F)ccc(-c3c(Cl)c4c5c(nc(OC[C@@]67CCCN6C[C@H](F)C7)nc5c3F)N(C3CCN(C(=O)C(F)F)CC3)CCO4)c12 [Compound 971, 2-amino-4-(8-chloro-4-(1-(2,2-difluoroacetyl)piperidin-4-yl)-10-fluoro-2-(((2R,7aS)-2-fluorotetrahydro-1H-pyrrolizin-7a(5H)-yl)methoxy)-5,6-dihydro-4H-[1,4]oxazepino[5,6,7-de]quinazolin-9-yl)-7-fluorobenzo[b]thiophene-3-carbonitrile]
9 | < 100 nM | < 100 nM | < 100 nM | < 100 nM | < 5000 nM | < 5000 nM | CC(COC(F)F)N1CCOc2c(Cl)c(-c3ccc(F)c4sc(N)c(C#N)c34)c(F)c3nc(OC[C@@]45CCCN4C[C@H](F)C5)nc1c23 (stereo partly drawn) [Compound 973, 2-amino-4-(8-chloro-4-(1-(difluoromethoxy)propan-2-yl)-10-fluoro-2-(((2R,7aS)-2-fluorotetrahydro-1H-pyrrolizin-7a(5H)-yl)methoxy)-5,6-dihydro-4H-[1,4]oxazepino[5,6,7-de]quinazolin-9-yl)-7-fluorobenzo[b]thiophene-3-carbonitrile]
10 | < 100 nM | < 100 nM | < 100 nM | < 100 nM | < 5000 nM | < 5000 nM | N#Cc1c(N)sc2c(F)ccc(-c3c(Cl)c4c5c(nc(OC[C@@]67CCCN6C[C@H](F)C7)nc5c3F)N(C3CC35CNC5)CCO4)c12 (stereo partly drawn) [Compound 990, 2-amino-4-(8-chloro-10-fluoro-2-(((2R,7aS)-2-fluorotetrahydro-1H-pyrrolizin-7a(5H)-yl)methoxy)-4-(5-azaspiro[2.3]hexan-1-yl)-5,6-dihydro-4H-[1,4]oxazepino[5,6,7-de]quinazolin-9-yl)-7-fluorobenzo[b]thiophene-3-carbonitrile]
11 | < 100 nM | < 100 nM | < 100 nM | < 100 nM | < 5000 nM | < 5000 nM | C[C@H]1COc2c(Cl)c(-c3ccc(F)c4sc(N)c(C#N)c34)c(F)c3nc(OC[C@@]45CCCN4C[C@H](F)C5)nc(c23)N1C1CCN(C(=O)C2CC2C#N)CC1 (stereo partly drawn) [Compound 995, 2-amino-4-((5S)-8-chloro-4-(1-(2-cyanocyclopropane-1-carbonyl)piperidin-4-yl)-10-fluoro-2-(((2R,7aS)-2-fluorotetrahydro-1H-pyrrolizin-7a(5H)-yl)methoxy)-5-methyl-5,6-dihydro-4H-[1,4]oxazepino[5,6,7-de]quinazolin-9-yl)-7-fluorobenzo[b]thiophene-3-carbonitrile]
12 | < 100 nM | < 100 nM | < 100 nM | < 100 nM | < 5000 nM | < 5000 nM | N#Cc1c(N)sc2c(F)ccc(-c3c(Cl)c4c5c(nc(OC[C@@]67CCCN6C[C@H](F)C7)nc5c3F)N(C3CCC5(C3)CN(C(=O)C3CC3)C5)CCO4)c12 (stereo partly drawn) [Compound 1011, 2-amino-4-(8-chloro-4-(2-(cyclopropanecarbonyl)-2-azaspiro[3.4]octan-6-yl)-10-fluoro-2-(((2R,7aS)-2-fluorotetrahydro-1H-pyrrolizin-7a(5H)-yl)methoxy)-5,6-dihydro-4H-[1,4]oxazepino[5,6,7-de]quinazolin-9-yl)-7-fluorobenzo[b]thiophene-3-carbonitrile]
